Laboratory results: article PMC3361267 (Journal of Medicinal Chemistry, 2012)
Entries after “also recorded” stand apart in the source; their conditions may differ. Like-named read-outs stand apart in the source and are kept apart here. *1 amine or outer side, *2 acyl side, *3 side chain or, on linkers, in order; H or OH if unused. Where a SMILES comes first, the peptide text is derived from it. Bridges are numbered along the chain shown (N, C = ends). [ ]: non-standard residue; d: D form. X1 = O=C([C@@H](N[*:1])c1c([*:3])[nH]c2ccccc12)[*:2]; Leu(4R-OH,5-OH) = C[C@](O)(CO)C[C@H](N)C(=O)O; cisHyp = O=C(O)[C@@H]1C[C@H](O)CN1

What was measured:
OATP1B1 = molecular target: T1, OATP1B1 (Homo sapiens, UniProt Q9Y6L6)
T1 sequence (Q9Y6L6 1-691): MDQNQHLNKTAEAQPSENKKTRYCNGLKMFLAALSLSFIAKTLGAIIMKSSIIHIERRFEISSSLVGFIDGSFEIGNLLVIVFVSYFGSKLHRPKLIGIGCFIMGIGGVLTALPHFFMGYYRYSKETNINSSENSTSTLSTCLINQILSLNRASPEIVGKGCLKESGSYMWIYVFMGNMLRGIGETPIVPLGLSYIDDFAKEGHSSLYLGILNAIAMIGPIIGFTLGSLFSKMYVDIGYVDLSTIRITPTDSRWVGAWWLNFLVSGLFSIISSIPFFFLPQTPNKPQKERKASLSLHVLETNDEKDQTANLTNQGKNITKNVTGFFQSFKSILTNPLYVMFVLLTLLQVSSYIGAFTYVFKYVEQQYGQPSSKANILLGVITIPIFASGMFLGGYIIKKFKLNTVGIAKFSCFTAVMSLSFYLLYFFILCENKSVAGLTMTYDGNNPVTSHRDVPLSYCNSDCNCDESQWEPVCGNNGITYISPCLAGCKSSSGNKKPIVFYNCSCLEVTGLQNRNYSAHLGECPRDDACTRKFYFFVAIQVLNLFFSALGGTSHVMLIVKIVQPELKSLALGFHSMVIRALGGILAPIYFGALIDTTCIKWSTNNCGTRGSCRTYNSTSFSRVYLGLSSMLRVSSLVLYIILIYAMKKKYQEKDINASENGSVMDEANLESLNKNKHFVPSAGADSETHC

OATP1B3 = molecular target: T2, OATP1B3 (Homo sapiens, UniProt Q9NPD5); settings: for classification as OATP1B3 inhibitor/stimulator (single-point): 20 μM
T2 sequence (Q9NPD5 1-702): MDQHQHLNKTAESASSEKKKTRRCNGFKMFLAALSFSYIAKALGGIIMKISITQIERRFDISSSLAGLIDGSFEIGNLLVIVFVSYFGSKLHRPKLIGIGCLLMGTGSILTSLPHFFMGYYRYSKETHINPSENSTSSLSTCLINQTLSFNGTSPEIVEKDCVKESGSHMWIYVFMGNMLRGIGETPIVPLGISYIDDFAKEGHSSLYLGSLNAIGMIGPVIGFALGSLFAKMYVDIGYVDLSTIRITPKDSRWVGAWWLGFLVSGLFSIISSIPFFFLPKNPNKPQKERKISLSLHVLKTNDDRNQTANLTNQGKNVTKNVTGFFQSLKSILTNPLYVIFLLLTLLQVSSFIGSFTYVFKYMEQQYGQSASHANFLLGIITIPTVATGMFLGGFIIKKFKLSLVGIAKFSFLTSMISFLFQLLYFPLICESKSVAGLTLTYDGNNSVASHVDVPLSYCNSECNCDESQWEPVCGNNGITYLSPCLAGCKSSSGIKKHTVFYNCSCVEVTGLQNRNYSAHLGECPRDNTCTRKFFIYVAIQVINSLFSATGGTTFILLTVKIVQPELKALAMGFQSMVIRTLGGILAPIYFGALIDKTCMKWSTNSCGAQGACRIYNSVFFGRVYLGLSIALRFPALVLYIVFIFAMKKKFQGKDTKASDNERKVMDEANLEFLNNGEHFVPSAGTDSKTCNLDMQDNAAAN

OATP2B1 [1] = molecular target: T3, OATP2B1 (Homo sapiens, UniProt O94956); settings: for classification as OATP2B1 inhibitor/stimulator (single-point): 20 μM
T3 sequence (O94956 1-709): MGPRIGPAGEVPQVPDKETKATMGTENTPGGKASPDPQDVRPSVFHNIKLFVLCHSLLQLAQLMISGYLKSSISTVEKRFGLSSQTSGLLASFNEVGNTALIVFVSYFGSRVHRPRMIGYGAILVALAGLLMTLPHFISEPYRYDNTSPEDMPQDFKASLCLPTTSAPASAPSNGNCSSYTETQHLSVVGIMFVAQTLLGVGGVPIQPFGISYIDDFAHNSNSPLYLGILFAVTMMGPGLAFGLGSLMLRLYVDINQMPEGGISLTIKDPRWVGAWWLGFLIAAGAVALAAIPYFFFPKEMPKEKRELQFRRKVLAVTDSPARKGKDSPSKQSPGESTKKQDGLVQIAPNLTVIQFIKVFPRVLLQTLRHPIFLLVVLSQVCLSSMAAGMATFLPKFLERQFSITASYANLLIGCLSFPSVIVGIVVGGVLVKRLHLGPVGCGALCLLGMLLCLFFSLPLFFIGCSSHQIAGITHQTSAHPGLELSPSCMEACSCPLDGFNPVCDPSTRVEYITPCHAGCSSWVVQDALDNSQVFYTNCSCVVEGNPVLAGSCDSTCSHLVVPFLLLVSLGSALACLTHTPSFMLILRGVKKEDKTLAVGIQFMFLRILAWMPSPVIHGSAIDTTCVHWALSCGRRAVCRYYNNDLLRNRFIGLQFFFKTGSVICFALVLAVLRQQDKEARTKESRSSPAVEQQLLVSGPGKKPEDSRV

[2] = test system: OATP1B1, OATP1B3, and OATP2B1; assay: Classification of specific and general OATP inhibitors; settings: 20 μM, inhibitor = at least 50% inhibition
BCRP = settings: cited from earlier work
MDR1 = settings: read-out: IC50 (MDR1); cited from earlier work
MRP2 = settings: read-out: IC50 (MRP2); cited from earlier work
OATP2B1 [3] = molecular target: T3, OATP2B1; assay: Transport kinetics of substrate uptake in OATP2B1-HEK293 cells; type: cell-based
[4] = OATP2B1 mediated uptake, HEK293

N[C@@H]1C[C@H]1c1ccccc1 (racemic) [Tranylcypromine]
OATP1B1 Inhib % (OATP1B1): -9.5% | OATP1B3 Inhib % (OATP1B3): -9.3% | OATP2B1 Inhib % (OATP2B1 [1]): 15.5%

OCCN1CCN(CCC=C2c3ccccc3Sc3ccc(C(F)(F)F)cc32)CC1 [Flupenthixol]
OATP1B3 Inhib % (OATP1B3; human): 13.5% | OATP2B1 Inhib % (OATP2B1 [1]; human): 9.5%

CCOc1ccc(-c2nc3cc(-c4nc5cc(N6CCN(C)CC6)ccc5[nH]4)ccc3[nH]2)cc1 [Hoechst 33342]
OATP inhibitor classification based on single-point inhibition assays [2]: OATP1B3, only three specific inhibitors

COc1ccc2c3c([nH]c2c1)[C@H](CC(C)C)N1C(=O)[C@H](CCC(=O)OC(C)(C)C)NC(=O)[C@@H]1C3 [KO143]
concentration that completely inhibits BCRP (BCRP): 1 µM

CN(C)C(=O)CCSC(SCCC(=O)O)c1cccc(/C=C/c2ccc3ccc(Cl)cc3n2)c1 (stereo not drawn) [MK571]
IC50 (MDR1): 26 µM | IC50 (BCRP; read-out: IC50 (BCRP)): 50 µM | IC50 (MRP2): 10 µM

CN(C)c1ccc(C=Cc2cc[n+](C)cc2)cc1 [N-methylpyridinium, ASP+]
OATP1B1 Inhib % (OATP1B1): 27.9% | OATP1B3 Inhib % (OATP1B3): -2.3% | OATP2B1 Inhib % (OATP2B1 [1]): 12.8%

O=C(O)C(=O)O.[NH-][C@@H]1CCCC[C@H]1[NH-].[Pt+2] [Oxaliplatin]
OATP1B1 Inhib % (OATP1B1): 13.0% | OATP1B3 Inhib % (OATP1B3): 9.9% | OATP2B1 Inhib % (OATP2B1 [1]): 8.2%

C[C@@H]1NC(=O)[C@H](C[C@@](C)(O)CO)NC(=O)[C@H]2NC(=O)[C@H](C)NC(=O)[C@@H]3C[C@H](O)CN3C(=O)[C@@H](CSc3[nH]c4ccccc4c32)NC(=O)[C@H]([C@@H](C)O)NC1=O [Phalloidin] (cyclo(AT[dC][cisHyp]A[X1][Leu(4R-OH,5-OH)]); thioether 3-6)
OATP1B3 Inhib % (OATP1B3; human): 36.2% | OATP2B1 Inhib % (OATP2B1 [1]; human): 24.1%

COC(=O)N[C@H](C(=O)N[C@@H](Cc1ccccc1)[C@@H](O)CN(Cc1ccc(-c2ccccn2)cc1)NC(=O)[C@@H](NC(=O)OC)C(C)(C)C)C(C)(C)C [atazanavir, Atazanavir]
OATP inhibitor classification based on single-point inhibition assays [2]: general OATP inhibitors

Clc1ccccc1C(c1ccccc1)(c1ccccc1)n1ccnc1 [clotrimazole, Clotrimazole]
classification as OATP1B3 inhibitor/stimulator (single-point) (OATP1B3): stimulator

COc1cccc2c1C(=O)c1c(O)c3c(c(O)c1C2=O)C[C@@](O)(C(=O)CO)C[C@@H]3O[C@H]1C[C@H](N)[C@H](O)[C@H](C)O1 [doxorubicin, Doxorubicin]
OATP inhibitor classification based on single-point inhibition assays [2]: specific inhibitors of one of the OATP transporters

C#Cc1cccc(Nc2ncnc3cc(OCCOC)c(OCCOC)cc23)c1 [erlotinib, Erlotinib]
OATP inhibitor classification based on single-point inhibition assays [2]: specific inhibitors of one of the OATP transporters

C[C@]12CC[C@@H]3c4ccc(OS(=O)(=O)O)cc4CC[C@H]3[C@@H]1CCC2=O [estrone-3-sulfate]
Km (OATP2B1 [3]; [4]): 38.2 ± 10.2 µM | Vmax (OATP2B1 [3]; [4]): 455.2 ± 55.36 pmol/mg protein/min | mean uptake of model substrate in OATP2B1 expressing HEK293 cells compared to passive uptake in mock-transfected cells (OATP2B1 [3]; n = 51 experiments): 44 times

CC(NCCC(c1ccccc1)c1ccccc1)c1ccccc1 (stereo not drawn) [fendiline, Fendiline]
classification as OATP2B1 inhibitor/stimulator (single-point) (OATP2B1 [1]): stimulate

COc1ccc2c(c1)c(CC(=O)O)c(C)n2C(=O)c1ccc(Cl)cc1 [indometacin, Indomethacin]
OATP inhibitor classification based on single-point inhibition assays [2]: specific inhibitors of one of the OATP transporters

CC[C@H](C)C(=O)O[C@H]1C[C@@H](C)C=C2C=C[C@H](C)[C@H](CC[C@@H](O)C[C@@H](O)CC(=O)O)[C@H]21 [lovastatin acid]
OATP inhibitor classification based on single-point inhibition assays [2]: specific OATP1B1 inhibitors

O=C1c2c(O)ccc(O)c2C(=O)c2c(NCCNCCO)ccc(NCCNCCO)c21 [mitoxantrone, Mitoxantrone]
OATP inhibitor classification based on single-point inhibition assays [2]: OATP1B3, only three specific inhibitors

CCc1nn(CCCN2CCN(c3cccc(Cl)c3)CC2)c(=O)n1CCOc1ccccc1 [nefazodone, Nefazodone]
classification as OATP1B1 inhibitor/stimulator (single-point) (OATP1B1; 20 μM): not interacting | classification as OATP1B3 inhibitor/stimulator (single-point) (OATP1B3): inhibitor | classification as OATP2B1 inhibitor/stimulator (single-point) (OATP2B1 [1]): inhibitor

C[C@@H]1[C@H](O)[C@@H](C)/C=C/C=C/CC/C=C/C=C/C=C/C=C/C(O[C@H]2O[C@H](C)[C@@H](O)[C@H](N)[C@@H]2O)CC2O[C@](O)(CC(O)C(O)CCC(O)CC(O)CC(O)CC(=O)O[C@H]1C)CC(O)C2C(=O)O (stereo partly drawn) [nystatin, Nystatin]
OATP1B3 Inhib % (OATP1B3): 74.9% | OATP2B1 Inhib % (OATP2B1 [1]): 23.4%

CC[C@H](C)C(=O)O[C@H]1C[C@H](O)C=C2C=C[C@H](C)[C@H](CC[C@@H](O)C[C@@H](O)CC(=O)O)[C@H]21 [pravastatin, Pravastatin]
OATP inhibitor classification based on single-point inhibition assays [2]: specific inhibitors of one of the OATP transporters | OATP inhibitor classification based on single-point inhibition assays ([2]; listed as pravastatin acid): specific OATP1B1 inhibitors

CC(=O)[C@H]1CC[C@H]2[C@@H]3CCC4=CC(=O)CC[C@]4(C)[C@H]3CC[C@]12C [progesterone, Progesterone]
classification as OATP2B1 inhibitor/stimulator (single-point) (OATP2B1 [1]): stimulate

CCC(C)(C)C(=O)O[C@H]1C[C@@H](C)C=C2C=C[C@H](C)[C@H](CC[C@@H](O)C[C@@H](O)CC(=O)O)[C@H]21 [simvastatin acid]
OATP inhibitor classification based on single-point inhibition assays [2]: specific OATP1B1 inhibitors

O=C(O)c1cc(/N=N/c2ccc(S(=O)(=O)Nc3ccccn3)cc2)ccc1O [sulfasalazine, Sulfasalazine]
OATP inhibitor classification based on single-point inhibition assays [2]: general OATP inhibitors

C[C@]12CC[C@H]3[C@@H](CCC4=CC(=O)CC[C@@]43C)[C@@H]1CC[C@@H]2O [testosterone, Testosterone]
classification as OATP2B1 inhibitor/stimulator (single-point) (OATP2B1 [1]): stimulate

CC[C@]1(O)C[C@H]2CN(CCc3c([nH]c4ccccc34)[C@@](C(=O)OC)(c3cc4c(cc3OC)N(C=O)[C@H]3[C@@](O)(C(=O)OC)[C@H](OC(C)=O)[C@]5(CC)C=CCN6CC[C@]43[C@@H]65)C2)C1 [vincristine, Vincristine]
OATP inhibitor classification based on single-point inhibition assays [2]: specific inhibitors of one of the OATP transporters; also recorded: OATP1B3, only three specific inhibitors | OATP inhibitor classification based on single-point inhibition assays ([2]; listed as Vincristine): specific inhibitor of OATP1B3

Olmesartan
OATP2B1 Inhib % (OATP2B1 [1]): -7.9%

cholecystokinin octapeptide [cholecystokinin octapeptide (CCK-8)]
OATP1B3 Inhib % (OATP1B3): 96.9% | OATP2B1 Inhib % (OATP2B1 [1]): 60.1%
